Measured values from patent publication US8466203B2, “Method of stabilizing human eye tissue by reaction with nitrite and related agents such as nitro compounds” (priority 2006, dated 2013).

Assays:
porcine sclera = experiment: Thermal shrinkage temperature analysis of porcine scleral strips; conditions: for shift in Ts (in words): neutral pH, up to 100 mM
Source text: (§1) Thermal shrinkage temperature or denaturation temperature (Ts) is a technique that has been used for decades in studying collagen cross-linking. As collagen fibers are progressively heated, a threshold temperature is reached at which point disruption of hydrogen bonding in the collagen molecule triple helix occurs, resulting in unwinding of the triple helices. The denaturation of tertiary protein structure results in a rapid shrinkage of the tissue of up to 80%. This phenomenon can be expressed in various ways including temperature of onset of tissue shrinkage, temperature at maximal tissue shrinkage, and temperature at 50% of maximal tissue shrinkage, for example. In addition, differential scanning calorimetry (DSC) is related to thermal shrinkage temperature analysis and is widely used to evaluate biomaterial cross-linking. Thermal shrinkage temperature is essentially a simplified version of DSC and can be used effectively to screen the cross-linking efficacy of compounds. For the purposes of this study, the onset of shrinkage is considered the Ts and the temperature at which 50% of maximal shrinkage has occurred is T50. Graphs depicting the relationship between degree of shrinkage and temperature indicate differences in degree of cross-linking between groups. Thus, stabilization of collagen fiber structures through non-enzymatic cross-linking increases Ts and T50.
(§2) This system can perform multiple Ts assays in succession, allowing rapid screening of a number of potential cross-linking agents and conditions. […] Inlet and outlet fittings allow for constant circulation of heated water which is modulated by a digitally controlled water bath equipped with a water pump. The entire box is placed on a digital photo scanner connected to a Windows based computer. Beginning at 50° C. the temperature is raised at a rate of 1° C./min and serial scans are taken at every degree increase in temperature up to 80° C. […] As the tissue shrinks, the images are captured by the scanner. The image files are later analyzed for 2-dimensional area using NIH Image J software and % shrinkage calculations are made using Microsoft Excel for graphing purposes. This method obviates the need for removal of tissue pieces from the water bath with manual micrometer measurements as described by the UVR group (Spoerl, E., et al., 2004).
Using this simple, reproducible assay enables the screening of a number of compounds for cross-linking efficacy. This is first performed using porcine eyes because of their low cost. Follow up studies can be performed using human eyes. Porcine eyes are obtained within 6 hrs of sacrifice (Hatfield Meat Packing, Inc., Hatfield Pa.). Eyes showing clear corneas and intact epithelia are chosen for study. […] Each strip is then cross-linked using a nitro agent. […] Opthalmol. 1999; 117:166-169) for 24-96 hrs. Following incubation, the samples are evaluated for degree of cross-linking using the Ts assay as described above.
From the data, Ts curves are generated for each compound and condition studied. Each data point is the average of 3 independent samples.

porcine cornea [1] = experiment: Yellowing of cross-linked porcine cornea
Experimental: (§3) These images were taken from tissues cross-linked with nitrite and the β-nitro alcohols 2-nitroethanol, 2-nitro-1-propanol, and […], for 48 hrs. […] Fresh porcine corneal strips and corneoscleral complexes were obtained within 6 hrs of sacrifice and incubated at 37° C. in buffered solutions (pH 7.4) containing 20% Dextran (T500) and either 100 mM NaNO2 or 100 mM of one each of the β-nitro alcohols. After 48 hrs, the following images were obtained. […] FIGS. 13 (B and D)
As such, the effects on corneal light transmission induced by cross-linking with β-nitro alcohols was evaluated using a method adopted from Dillon et al 2004.

porcine cornea [2] = experiment: Thermal shrinkage temperature analysis of porcine corneal strips
Source text: as §1, §2
Using this simple, reproducible assay enables the screening of a number of compounds for cross-linking efficacy. This is first performed using porcine eyes because of their low cost. Follow up studies can be performed using human eyes. Porcine eyes are obtained within 6 hrs of sacrifice (Hatfield Meat Packing, Inc., Hatfield Pa.). Eyes showing clear corneas and intact epithelia are chosen for study. […] Each strip is then cross-linked using a nitro agent. The incubation solution is 20% Dextran (T500) [to prevent tissue swelling] in 0.2 M NaH2PO4/Na2HPO4 (pH 7.4) with various concentrations of nitro agent (i.e. 1, 10, and 100 mM). […] The samples are then placed in 2 mL microcentrifuge tubes with 1 mL of incubation solution and reacted in a 34° C. water bath (simulating corneal temperature—Girardin, F., et al., “Relationship between corneal temperature and finger temperature,” Arch. Opthalmol. 1999; 117:166-169) for 24-96 hrs. Following incubation, the samples are evaluated for degree of cross-linking using the Ts assay as described above.

[3] = tested on: primary bovine corneal endothelial cells; conditions: bovine, 48 h
porcine cornea [4] = experiment: Gross stiffness of porcine corneal strips handled with a forceps; conditions: 100 mM, pH 7.4, 37° C., 48 hrs
Experimental: Fresh porcine corneal strips and corneoscleral complexes obtained within 6 hrs of sacrifice and incubated at 37° C. in buffered solutions (pH 7.4) containing 20% Dextran (T500) and either 100 mM NaNO2 or 100 mM of one each of the specified β-nitro alcohols
as §3

human fibroblasts = conditions: Sung 1998; cited from earlier work
[5] = 100 mM reagent, pH 7.4, 37° C., 96 hrs
[6] = 1 mM reagent, pH 7.4, 37° C., 96 hrs
[7] = 10 mM reagent, pH 7.4, 37° C., 96 hrs
[8] = 100 mM, 24 hrs reaction, pH 7.4

| SMILES | T50 (temperature at 50% of maximal shrinkage) (porcine sclera; [5]) | T50 Δ (change in 50% shrinkage temperature compared to control) (porcine sclera; [5]) | Ti (temperature at 1% absolute shrinkage) (porcine sclera; [5]) | shift in Ts (in words) (porcine sclera) | T50 (temperature at 50% of maximal shrinkage) (porcine sclera; [6]) | T50 Δ (change in 50% shrinkage temperature compared to control) (porcine sclera; [6]) | T50 (temperature at 50% of maximal shrinkage) (porcine sclera; [7]) | T50 Δ (change in 50% shrinkage temperature compared to control) (porcine sclera; [7]) | Ti (temperature at 1% absolute shrinkage) (porcine sclera; [7]) | further results |
| --- | --- | --- | --- | --- | --- | --- | --- | --- | --- | --- |
| NCCO [2-aminoethanol, reference compound] | 67.9 °C | 2.6 °C | 64.3 °C | only a marginal shift in Ts | – | – | – | – | – | – |
| CCCC(CO)[N+](=O)[O-] (stereo not drawn) [2-nitro-1-pentanol] | – | – | – | – | – | – | – | – | – | yellowing (tinting) (porcine cornea [1]): without producing yellowing; shifts in Ts (in words) (porcine cornea [2]): produce shifts in Ts |
| CC(CO)[N+](=O)[O-] (stereo not drawn) [2-nitro-1-propanol] | 72.7 °C | 7.4 °C | 69.5 °C | – | 66.0 °C | 0.7 °C | 67.5 °C | 2.2 °C | 64.4 °C | Ti (temperature at 1% absolute shrinkage) (porcine sclera; [6]): 63.0 °C; highest tolerated level [3]: 0.75 mM; yellowing (tinting) (porcine cornea [1]): without producing yellowing; shifts in Ts (in words) (porcine cornea [2]): produce shifts in Ts; stiffness change when handled with a forceps (porcine cornea [4]): intermediate effect |
| CC[N+](=O)[O-] [2-nitroethane, reference compound] | 65.3 °C | 0 °C | 62.5 °C | did not shift the Ts to any extent | – | – | 65.4 °C | 0.1 °C | 62.5 °C | – |
| O=[N+]([O-])c1ccccc1O [2-nitrophenol, reference compound] | 66.0 °C | 0.7 °C | 62.9 °C | very little shift in Ts | 65.2 °C | −0.1 °C | 65.6 °C | 0.3 °C | 62.3 °C | Ti (temperature at 1% absolute shrinkage) (porcine sclera; [6]): 62.2 °C |
| CCC(C(C)O)[N+](=O)[O-] (stereo not drawn) [3-nitro-2-pentanol] | 70.7 °C | 5.4 °C | 68.3 °C | – | 66.2 °C | 0.9 °C | 67.7 °C | 2.4 °C | 65.3 °C | Ti (temperature at 1% absolute shrinkage) (porcine sclera; [6]): 62.5 °C; highest tolerated level [3]: 2 mM; stiffness change when handled with a forceps (porcine cornea [4]): dramatic stiffness change |
| NCCN(CCN)/[N+]([O-])=N/O [DETA/NONO, diethylenetriaamine NONOate, reference compound] | 65.5 °C | 0.2 °C | – | Neither compound was able to shift Ts parameters | – | – | – | – | – | – |
| C[S+](C)[O-] [DMSO, reference compound] | – | – | – | – | – | – | – | – | – | T50 (porcine sclera; 1% reagent, pH 7.4, 96 hrs): 65.0 °C; T50 Δ (porcine sclera; 1% reagent, pH 7.4, 96 hrs): −0.3 °C |
| NCCCN(CCCN)/[N+]([O-])=N/O [DPTA/NONO, dipropylenetriamine NONOate, reference compound] | – | – | – | Neither compound was able to shift Ts parameters | – | – | – | – | – | T50 (porcine sclera; 10 mM, 24 hrs reaction, pH 7.4): 66.4 °C; T50 Δ (porcine sclera; 10 mM, 24 hrs reaction, pH 7.4): 1.1 °C; T50 (porcine sclera; [8]): 66.2 °C; T50 Δ (porcine sclera; [8]): 0.9 °C |
| CCO [Ethanol, reference compound] | 65.2 °C | −0.1 °C | – | – | – | – | – | – | – | – |
| C=O [Formaldehyde, reference compound] | – | – | – | – | – | – | – | – | – | T50 (temperature at 50% of maximal shrinkage) (porcine sclera; pH 7.4): 67.7 °C; T50 Δ (change in 50% shrinkage temperature compared to control) (porcine sclera; pH 7.4): 2.4 °C |
| O=CCCCC=O [Glutaraldehyde, reference compound] | – | – | – | – | 68.9 °C | 3.6 °C | – | – | – | potency as a cross-linking agent relative to 2-nitroethanol (porcine sclera; at moderate levels of T50 shift (~4° C.)): approximately 10 × |
| COC(=O)C1=CO[C@@H](O)[C@@H]2C(CO)=CC[C@H]12 [genipin] | – | – | – | – | – | – | – | – | – | tolerable level relative to epoxy (human fibroblasts): more than 20 ×; tolerable level relative to glutaraldehyde (human fibroblasts): more than 100 × |
